# Experimental data as given in patent publication US9708314B2, “Heterocyclic amide compound” (NISSAN CHEMICAL INDUSTRIES, LTD., priority 2013, dated 2017).
# What was measured:
# Assay type in all cases: in vivo
# Leptochloa chinensis = assay: Test Example 3: herbicidal effect by application to foliage (Wagner pot, water depth 0.1-0.5 cm); conditions: Nineteenth Table; application to foliage; application herbicide amount 320 g/ha
# Summary of the method: (§1)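 Alluvial soil in 1/10000 are Wagner pots, sown and grown 14 days in a 25–30 °C greenhouse. An emulsifiable concentrate diluted in water to the set dose (g/ha) was sprayed on stems and leaves. Effect scored three weeks later on a 0–5 scale: 5 = ≥90% herbicidal ratio, 0 = ≤5%.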
# [1] = tested on: Echinochloa crus-galli var. crus-galli; assay: as above; conditions: Nineteenth Table; application to foliage; application herbicide amount 320 g/ha
# Summary of the method: as §1
# Cyperus difformis = assay: as above; conditions: Nineteenth Table; application to foliage; application herbicide amount 320 g/ha
# Summary of the method: as §1
# Scirpus juncoides = assay: Test Example 1: herbicidal activity, application before weed generation in submerged conditions; conditions: Application herbicide amount 320 g/ha; Seventeenth Table
# Summary of the method: (§2)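 Pre-emergence water-surface application under 4 cm flooding, same day as sowing, with rice transplanted at 2.5 leaf stage. Dose given as g/ha. Plants grown at 25° C. to 30° C. and rated three weeks later on a 0 (≤5%) to 5 (≥90%) herbicidal-ratio scale.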
# Monochoria vaginalis = assay: as above; conditions: Application herbicide amount 320 g/ha; Seventeenth Table
# Summary of the method: as §2
# [2] = tested on: Echinochloa oryzacola Vasing.; assay: as above; conditions: Application herbicide amount 320 g/ha; Seventeenth Table
# Summary of the method: as §2
compound,measurement,setting,value
CC[S+]([O-])c1nnc2c(C(=O)Nc3nnnn3C)ccc(C(F)(F)F)n12 (stereo not drawn) [2-031],D (herbicidal effect grade),Leptochloa chinensis,5 (Herbicidal ratio of 90% or more (almost completely withered))
same,H (herbicidal effect grade),[1],5 (Herbicidal ratio of 90% or more (almost completely withered))
same,E (herbicidal effect grade),Cyperus difformis,5 (Herbicidal ratio of 90% or more (almost completely withered))
same,B: Scirpus juncoides (herbicidal effect grade),Scirpus juncoides,5 (Herbicidal ratio of 90% or more (almost completely withered))
same,C: Monochoria vaginalis (herbicidal effect grade),Monochoria vaginalis,5 (Herbicidal ratio of 90% or more (almost completely withered))
same,A: Echinochloa oryzicola Vasing. (herbicidal effect grade),[2],5 (Herbicidal ratio of 90% or more (almost completely withered))
COCCOCc1nnc2c(C(=O)Nc3nnco3)ccc(C(F)(F)F)n12 [1-107],D (herbicidal effect grade),Leptochloa chinensis,5 (Herbicidal ratio of 90% or more (almost completely withered))
same,H (herbicidal effect grade),[1],5 (Herbicidal ratio of 90% or more (almost completely withered))
same,E (herbicidal effect grade),Cyperus difformis,5 (Herbicidal ratio of 90% or more (almost completely withered))
same,B: Scirpus juncoides (herbicidal effect grade),Scirpus juncoides,4 (Herbicidal ratio of 70% or more and less than 90%)
same,C: Monochoria vaginalis (herbicidal effect grade),Monochoria vaginalis,5 (Herbicidal ratio of 90% or more (almost completely withered))
same,A: Echinochloa oryzicola Vasing. (herbicidal effect grade),[2],5 (Herbicidal ratio of 90% or more (almost completely withered))
CSCc1nnc2c(C(=O)Nc3nnnn3C)ccc(C(F)(F)F)n12 [2-029],D (herbicidal effect grade),Leptochloa chinensis,5 (Herbicidal ratio of 90% or more (almost completely withered))
same,H (herbicidal effect grade),[1],5 (Herbicidal ratio of 90% or more (almost completely withered))
same,E (herbicidal effect grade),Cyperus difformis,5 (Herbicidal ratio of 90% or more (almost completely withered))
same,B: Scirpus juncoides (herbicidal effect grade),Scirpus juncoides,5 (Herbicidal ratio of 90% or more (almost completely withered))
same,C: Monochoria vaginalis (herbicidal effect grade),Monochoria vaginalis,5 (Herbicidal ratio of 90% or more (almost completely withered))
same,A: Echinochloa oryzicola Vasing. (herbicidal effect grade),[2],5 (Herbicidal ratio of 90% or more (almost completely withered))
Cn1nnnc1NC(=O)c1ccc(C(F)(F)F)n2c(COc3ccccc3)nnc12 [2-020],D (herbicidal effect grade),Leptochloa chinensis,4 (Herbicidal ratio of 70% or more and less than 90%)
same,H (herbicidal effect grade),[1],4 (Herbicidal ratio of 70% or more and less than 90%)
same,E (herbicidal effect grade),Cyperus difformis,4 (Herbicidal ratio of 70% or more and less than 90%)
same,B: Scirpus juncoides (herbicidal effect grade),Scirpus juncoides,2 (Herbicidal ratio of 20% or more and less than 40%)
same,C: Monochoria vaginalis (herbicidal effect grade),Monochoria vaginalis,2 (Herbicidal ratio of 20% or more and less than 40%)
same,A: Echinochloa oryzicola Vasing. (herbicidal effect grade),[2],3 (Herbicidal ratio of 40% or more and less than 70%)
COc1ccc(-c2nnc3c(C(=O)Nc4nnnn4C)ccc(C(F)(F)F)n23)cc1 [2-011],D (herbicidal effect grade),Leptochloa chinensis,5 (Herbicidal ratio of 90% or more (almost completely withered))
same,H (herbicidal effect grade),[1],5 (Herbicidal ratio of 90% or more (almost completely withered))
same,E (herbicidal effect grade),Cyperus difformis,5 (Herbicidal ratio of 90% or more (almost completely withered))
same,B: Scirpus juncoides (herbicidal effect grade),Scirpus juncoides,5 (Herbicidal ratio of 90% or more (almost completely withered))
same,C: Monochoria vaginalis (herbicidal effect grade),Monochoria vaginalis,5 (Herbicidal ratio of 90% or more (almost completely withered))
same,A: Echinochloa oryzicola Vasing. (herbicidal effect grade),[2],5 (Herbicidal ratio of 90% or more (almost completely withered))
Cc1nnc(NC(=O)c2ccc(C(F)(F)F)n3c(SCC4CCCO4)nnc23)o1 (stereo not drawn) [1-116],D (herbicidal effect grade),Leptochloa chinensis,4 (Herbicidal ratio of 70% or more and less than 90%)
same,H (herbicidal effect grade),[1],4 (Herbicidal ratio of 70% or more and less than 90%)
same,E (herbicidal effect grade),Cyperus difformis,0 (Herbicidal ratio of 5% or less (almost no effect))
same,B: Scirpus juncoides (herbicidal effect grade),Scirpus juncoides,4 (Herbicidal ratio of 70% or more and less than 90%)
same,C: Monochoria vaginalis (herbicidal effect grade),Monochoria vaginalis,2 (Herbicidal ratio of 20% or more and less than 40%)
same,A: Echinochloa oryzicola Vasing. (herbicidal effect grade),[2],5 (Herbicidal ratio of 90% or more (almost completely withered))
COCCN(C)c1nnc2c(C(=O)Nc3nnco3)ccc(C(F)(F)F)n12 [1-121],D (herbicidal effect grade),Leptochloa chinensis,5 (Herbicidal ratio of 90% or more (almost completely withered))
same,H (herbicidal effect grade),[1],5 (Herbicidal ratio of 90% or more (almost completely withered))
same,E (herbicidal effect grade),Cyperus difformis,5 (Herbicidal ratio of 90% or more (almost completely withered))
same,B: Scirpus juncoides (herbicidal effect grade),Scirpus juncoides,4 (Herbicidal ratio of 70% or more and less than 90%)
same,C: Monochoria vaginalis (herbicidal effect grade),Monochoria vaginalis,4 (Herbicidal ratio of 70% or more and less than 90%)
same,A: Echinochloa oryzicola Vasing. (herbicidal effect grade),[2],5 (Herbicidal ratio of 90% or more (almost completely withered))
Cc1nnc(NC(=O)c2ccc(C(F)(F)F)n3c(N4CCS(=O)(=O)CC4)nnc23)o1 [1-120],D (herbicidal effect grade),Leptochloa chinensis,5 (Herbicidal ratio of 90% or more (almost completely withered))
same,H (herbicidal effect grade),[1],5 (Herbicidal ratio of 90% or more (almost completely withered))
same,E (herbicidal effect grade),Cyperus difformis,5 (Herbicidal ratio of 90% or more (almost completely withered))
same,B: Scirpus juncoides (herbicidal effect grade),Scirpus juncoides,3 (Herbicidal ratio of 40% or more and less than 70%)
same,C: Monochoria vaginalis (herbicidal effect grade),Monochoria vaginalis,1 (Herbicidal ratio of 5% or more and less than 20%)
same,A: Echinochloa oryzicola Vasing. (herbicidal effect grade),[2],5 (Herbicidal ratio of 90% or more (almost completely withered))
CC(=O)CSc1nnc2c(C(=O)Nc3nnc(C)o3)ccc(C(F)(F)F)n12 [1-125],D (herbicidal effect grade),Leptochloa chinensis,4 (Herbicidal ratio of 70% or more and less than 90%)
same,H (herbicidal effect grade),[1],5 (Herbicidal ratio of 90% or more (almost completely withered))
same,E (herbicidal effect grade),Cyperus difformis,3 (Herbicidal ratio of 40% or more and less than 70%)
same,B: Scirpus juncoides (herbicidal effect grade),Scirpus juncoides,3 (Herbicidal ratio of 40% or more and less than 70%)
same,C: Monochoria vaginalis (herbicidal effect grade),Monochoria vaginalis,1 (Herbicidal ratio of 5% or more and less than 20%)
same,A: Echinochloa oryzicola Vasing. (herbicidal effect grade),[2],0 (Herbicidal ratio of 5% or less (almost no effect))
O=C(Nc1nnco1)c1ccc(C(F)(F)F)n2c(-c3ccc(Cl)nc3)nnc12 [1-150],D (herbicidal effect grade),Leptochloa chinensis,5 (Herbicidal ratio of 90% or more (almost completely withered))
same,H (herbicidal effect grade),[1],5 (Herbicidal ratio of 90% or more (almost completely withered))
same,E (herbicidal effect grade),Cyperus difformis,5 (Herbicidal ratio of 90% or more (almost completely withered))
same,B: Scirpus juncoides (herbicidal effect grade),Scirpus juncoides,5 (Herbicidal ratio of 90% or more (almost completely withered))
same,C: Monochoria vaginalis (herbicidal effect grade),Monochoria vaginalis,5 (Herbicidal ratio of 90% or more (almost completely withered))
same,A: Echinochloa oryzicola Vasing. (herbicidal effect grade),[2],5 (Herbicidal ratio of 90% or more (almost completely withered))
CCCSc1nnc2c(C(=O)Nc3nnco3)ccc(C(F)(F)F)n12 [1-108],D (herbicidal effect grade),Leptochloa chinensis,5 (Herbicidal ratio of 90% or more (almost completely withered))
same,H (herbicidal effect grade),[1],5 (Herbicidal ratio of 90% or more (almost completely withered))
same,E (herbicidal effect grade),Cyperus difformis,5 (Herbicidal ratio of 90% or more (almost completely withered))
same,B: Scirpus juncoides (herbicidal effect grade),Scirpus juncoides,5 (Herbicidal ratio of 90% or more (almost completely withered))
same,C: Monochoria vaginalis (herbicidal effect grade),Monochoria vaginalis,5 (Herbicidal ratio of 90% or more (almost completely withered))
same,A: Echinochloa oryzicola Vasing. (herbicidal effect grade),[2],5 (Herbicidal ratio of 90% or more (almost completely withered))
CCSc1nnc2c(C(=O)Nc3nnnn3C)ccc(C(F)(F)F)n12 [2-024],D (herbicidal effect grade),Leptochloa chinensis,5 (Herbicidal ratio of 90% or more (almost completely withered))
same,H (herbicidal effect grade),[1],5 (Herbicidal ratio of 90% or more (almost completely withered))
same,E (herbicidal effect grade),Cyperus difformis,5 (Herbicidal ratio of 90% or more (almost completely withered))
same,B: Scirpus juncoides (herbicidal effect grade),Scirpus juncoides,5 (Herbicidal ratio of 90% or more (almost completely withered))
same,C: Monochoria vaginalis (herbicidal effect grade),Monochoria vaginalis,5 (Herbicidal ratio of 90% or more (almost completely withered))
same,A: Echinochloa oryzicola Vasing. (herbicidal effect grade),[2],5 (Herbicidal ratio of 90% or more (almost completely withered))
Cc1nnc(NC(=O)c2ccc(C(F)(F)F)n3c(C4(C)CC4(Cl)Cl)nnc23)o1 (stereo not drawn) [1-105],D (herbicidal effect grade),Leptochloa chinensis,5 (Herbicidal ratio of 90% or more (almost completely withered))
same,H (herbicidal effect grade),[1],5 (Herbicidal ratio of 90% or more (almost completely withered))
same,E (herbicidal effect grade),Cyperus difformis,5 (Herbicidal ratio of 90% or more (almost completely withered))
same,B: Scirpus juncoides (herbicidal effect grade),Scirpus juncoides,5 (Herbicidal ratio of 90% or more (almost completely withered))
same,C: Monochoria vaginalis (herbicidal effect grade),Monochoria vaginalis,4 (Herbicidal ratio of 70% or more and less than 90%)
same,A: Echinochloa oryzicola Vasing. (herbicidal effect grade),[2],5 (Herbicidal ratio of 90% or more (almost completely withered))
